Results from patent US20240116985A1, “STAPLED PEPTIDES AND METHODS THEREOF” (priority 2020, published 2024).
≈ marks a conversion by molar mass, not a printed value. Where two headings read alike, the source gives them in different places.

Experiments:
[1] = target: T1, beta-catenin/TCF4 engagement (Homo sapiens, UniProt P35222); assay: Nano-BRET target engagement assay (B-cat-Halo & TCF4-Luc in HEK293 cells); type: cell-based; details: absolute IC50; read-out: NanoBRET Abs IC50
T1 construct: expressed in transfected cells; host or cells: HEK293
T1 sequence (P35222 1-781): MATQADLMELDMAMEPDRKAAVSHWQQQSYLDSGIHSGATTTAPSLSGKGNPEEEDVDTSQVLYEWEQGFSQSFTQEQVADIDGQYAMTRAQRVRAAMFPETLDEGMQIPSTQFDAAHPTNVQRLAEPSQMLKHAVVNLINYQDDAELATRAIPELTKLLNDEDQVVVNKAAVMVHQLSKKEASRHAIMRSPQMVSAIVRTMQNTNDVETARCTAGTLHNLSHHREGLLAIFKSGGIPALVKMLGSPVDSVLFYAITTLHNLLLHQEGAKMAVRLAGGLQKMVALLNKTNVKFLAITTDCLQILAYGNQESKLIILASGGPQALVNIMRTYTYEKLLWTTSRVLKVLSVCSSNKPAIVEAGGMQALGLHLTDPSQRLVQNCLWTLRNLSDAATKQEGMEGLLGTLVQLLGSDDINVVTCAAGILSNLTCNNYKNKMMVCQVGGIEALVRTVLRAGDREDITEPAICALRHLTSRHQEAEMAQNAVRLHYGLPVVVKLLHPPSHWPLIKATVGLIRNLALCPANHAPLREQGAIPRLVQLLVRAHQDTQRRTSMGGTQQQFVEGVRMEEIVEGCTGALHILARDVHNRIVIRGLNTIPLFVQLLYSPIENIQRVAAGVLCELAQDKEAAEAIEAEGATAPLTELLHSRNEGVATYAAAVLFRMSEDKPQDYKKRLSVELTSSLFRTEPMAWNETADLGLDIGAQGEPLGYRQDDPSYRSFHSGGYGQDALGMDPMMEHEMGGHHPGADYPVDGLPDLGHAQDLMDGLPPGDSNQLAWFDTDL

[2] = target: T2, full-length beta-Catenin (Uniprot ID P35222) (Homo sapiens, UniProt P35222); assay: Fluorescence polarization IC50 (beta-catenin / 5FAM-TCF4 10-53 competition); type: binding; details: read-out: beta-Catenin FP IC50
T2 construct: 10 nM full-length beta-Catenin (Uniprot ID P35222)
T2 sequence (P35222 1-781): T1 sequence (P35222 1-781)

Solubility in PBS = type: physicochemical
Method in brief: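 HPLC quantitation of peptide remaining in the PBS supernatant after ultracentrifugation, referenced to a 50 μM solution in DMSO.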

| SMILES | IC50 [1] | IC50 ([2]; fluorescence polarization) | Solubility (Solubility in PBS; Solubility (uM)) | IC50 [2] | Solubility (Solubility in PBS) |
| --- | --- | --- | --- | --- | --- |
| CC(=O)N1CCC[C@]12CC=CCCCC1(CCCC=CCCCOC(=O)N3CC[C@@](C(=O)N[C@@H](Cc4ccsc4)C(=O)N[C@@H](Cc4csc5ccccc45)C(=O)N[C@@H](CCC(N)=O)C(N)=O)(C3)NC(=O)[C@H](Cc3cccc(C(F)(F)F)c3)NC(=O)[C@H](Cc3ccccc3)NC(=O)[C@H](C)NC(=O)[C@H](C)NC(=O)[C@H](CC(=O)O)NC(=O)[C@H](CC(=O)O)NC1=O)NC(=O)[C@H](CC(C)(C)C)NC(=O)[C@H](CC(=O)O)NC2=O (stereo partly drawn) [I-1364, Ac-PL3-Asp-Npg-B5-Asp-Asp-Ala-Ala-Phe-3F3MeF-PyrS2-3Thi-BztA-Gln-NH2] | 10.5 µM | 0.009 µM | 17 µM (≈ 34.3 µg/mL) |  |  |
| CC(=O)N1CCC[C@]12CC=CCCCC1(CCCC=CCCCOC(=O)N3CC[C@@](C(=O)N[C@@H](Cc4ccccc4Br)C(=O)N[C@@H](Cc4csc5ccccc45)C(=O)N[C@@H](CCC(N)=O)C(N)=O)(C3)NC(=O)[C@H](CC(N)=O)NC(=O)[C@H](Cc3ccccc3)NC(=O)[C@H](C)NC(=O)[C@H](C)NC(=O)[C@H](CC(=O)O)NC(=O)[C@H](CC(=O)O)NC1=O)NC(=O)[C@H](CC(C)(C)C)NC(=O)[C@H](CC(=O)O)NC2=O (stereo partly drawn) [I-1323, Ac-PL3-Asp-Npg-B5-Asp-Asp-Ala-Ala-Phe-Asn-PyrS2-2BrF-BztA-Gln-NH2] | 11.7 µM | 0.006 µM | 48 µM (≈ 95.6 µg/mL) |  |  |
| CC(=O)N1CCC[C@]12CC=CCCCC1(CCCC=CCCCOC(=O)N3CC[C@@](C(=O)N[C@@H](Cc4ccsc4)C(=O)N[C@@H](Cc4csc5ccccc45)C(=O)N[C@@H](CCC(N)=O)C(N)=O)(C3)NC(=O)[C@H](Cc3ccc(C(F)(F)F)cc3)NC(=O)[C@H](Cc3ccccc3)NC(=O)[C@H](C)NC(=O)[C@H](C)NC(=O)[C@H](CC(=O)O)NC(=O)[C@H](CC(=O)O)NC1=O)NC(=O)[C@H](CC(C)(C)C)NC(=O)[C@H](CC(=O)O)NC2=O (stereo partly drawn) [I-1365, Ac-PL3-Asp-Npg-B5-Asp-Asp-Ala-Ala-Phe-4F3MeF-PyrS2-3Thi-BztA-Gln-NH2] | 9.7 µM | 0.009 µM | 22 µM (≈ 44.4 µg/mL) |  |  |
| CC(=O)N1CCC[C@]12CC=CCCCC1(CCCC=CCCCOC(=O)N3CC[C@@](C(=O)N[C@@H](Cc4ccccc4Cl)C(=O)N[C@@H](Cc4csc5ccccc45)C(=O)N[C@@H](CCC(N)=O)C(N)=O)(C3)NC(=O)[C@H](CC(N)=O)NC(=O)[C@H](Cc3ccccc3)NC(=O)[C@H](CCCCNC(C)C)NC(=O)[C@H](C)NC(=O)[C@H](CC(=O)O)NC(=O)[C@H](CC(=O)O)NC1=O)NC(=O)[C@H](CC(C)(C)C)NC(=O)[C@H](CC(=O)O)NC2=O (stereo partly drawn) [I-1132, Ac-PL3-Asp-Npg-B5-Asp-Asp-Ala-iPrLys-Phe-Asn-PyrS2-2C1F-BztA-Gln-NH2] | > 20 µM |  | 49 µM (≈ 100 µg/mL) | 0.021 µM |  |
| CC(=O)N1CCC[C@]12CC=CCCCC1(CCCC=CCCCOC(=O)N3CC[C@@](C(=O)N[C@@H](Cc4ccccc4Cl)C(=O)N[C@@H](Cc4csc5ccccc45)C(=O)N[C@@H](CO)C(N)=O)(C3)NC(=O)[C@H]([C@@H](C)O)NC(=O)[C@H](Cc3ccccc3)NC(=O)[C@H](CC(C)C)NC(=O)[C@H](CC(C)C)NC(=O)[C@H](CC(=O)O)NC(=O)[C@H](CC(=O)O)NC1=O)NC(=O)[C@H](CC1CCCCC1)NC(=O)[C@H](CC(=O)O)NC2=O (stereo partly drawn) [I-1152, Ac-PL3-Asp-Cha-B5-Asp-Asp-Leu-Leu-Phe-Thr-PyrS2-2C1F-BztA-Ser-NH2] | 14.2 µM | 0.065 µM |  |  | 10 µM (≈ 20 µg/mL) |
| CC(=O)N1CCC[C@]12CC=CCCCC1(CCCC=CCCCOC(=O)N3CC[C@@](C(=O)N[C@@H](Cc4ccsc4)C(=O)N[C@@H](Cc4csc5ccccc45)C(=O)N[C@@H](CCC(N)=O)C(N)=O)(C3)NC(=O)[C@H](CC(N)=O)NC(=O)[C@H](Cc3ccccc3)NC(=O)[C@H](C)NC(=O)[C@H](C)NC(=O)[C@H](CC(=O)O)NC(=O)[C@H](CC(N)=O)NC1=O)NC(=O)[C@H](CC(C)(C)C)NC(=O)[C@H](CC(=O)O)NC2=O (stereo partly drawn) [I-1206, Ac-PL3-Asp-Npg-B5-Asn-Asp-Ala-Ala-Phe-Asn-PyrS2-3Thi-BztA-Gln-NH2] | 27.8 µM | 0.032 µM |  |  | 50 µM (≈ 95.9 µg/mL) |
| CC(=O)N1CCC[C@]12CC=CCCCC1(CCCC=CCCCOC(=O)N3CC[C@@](C(=O)N[C@@H](Cc4ccccc4Cl)C(=O)N[C@@H](Cc4csc5ccccc45)C(=O)N[C@@H](CCC(N)=O)C(N)=O)(C3)NC(=O)[C@H](CCCCNC(C)C)NC(=O)[C@H](Cc3ccccc3)NC(=O)[C@H](C)NC(=O)[C@H](C)NC(=O)[C@H](CCC(=O)O)NC(=O)[C@H](CC(=O)O)NC1=O)NC(=O)[C@H](CC(C)(C)C)NC(=O)[C@H](CC(=O)O)NC2=O (stereo partly drawn) [I-1281, Ac-PL3-Asp-Npg-B5-Asp-Glu-Ala-Ala-Phe-iPrLys-PyrS2-2C1F-BztA-Gln-NH2] | 22.2 µM | 0.01 µM | 14 µM (≈ 28.2 µg/mL) |  |  |
| CC(=O)N1CCC[C@]12CC=CCCCC1(CCCC=CCCCOC(=O)N3CC[C@@](C(=O)N[C@@H](Cc4ccsc4)C(=O)N[C@@H](Cc4csc5ccccc45)C(=O)N[C@@H](CCC(N)=O)C(N)=O)(C3)NC(=O)[C@H](Cc3ccccc3C(F)(F)F)NC(=O)[C@H](Cc3ccccc3)NC(=O)[C@H](C)NC(=O)[C@H](C)NC(=O)[C@H](CC(=O)O)NC(=O)[C@H](CC(=O)O)NC1=O)NC(=O)[C@H](CC(C)(C)C)NC(=O)[C@H](CC(=O)O)NC2=O (stereo partly drawn) [I-1363, Ac-PL3-Asp-Npg-B5-Asp-Asp-Ala-Ala-Phe-2F3MeF-PyrS2-3Thi-BztA-Gln-NH2] | 5.5 µM | 0.009 µM | 12 µM (≈ 24.2 µg/mL) |  |  |
| CC(=O)N1CCC[C@]12CC=CCCCC1(CCCC=CCCCOC(=O)N3CC[C@@](C(=O)N[C@@H](Cc4ccccc4F)C(=O)N[C@@H](Cc4csc5ccccc45)C(=O)N[C@@H](CCC(N)=O)C(N)=O)(C3)NC(=O)[C@H](CC(N)=O)NC(=O)[C@H](Cc3ccccc3)NC(=O)[C@H](C)NC(=O)[C@H](C)NC(=O)[C@H](CC(=O)O)NC(=O)[C@H](CC(=O)O)NC1=O)NC(=O)[C@H](CC(C)(C)C)NC(=O)[C@H](CC(=O)O)NC2=O (stereo partly drawn) [I-1320, Ac-PL3-Asp-Npg-B5-Asp-Asp-Ala-Ala-Phe-Asn-PyrS2-2FF-BztA-Gln-NH2] | 26.2 µM | 0.01 µM | 44 µM (≈ 84.9 µg/mL) |  |  |
| CC(=O)N1CCC[C@]12CC=CCCCC1(CCCC=CCCCOC(=O)N3CC[C@@](C(=O)N[C@@H](Cc4ccccc4C(N)=O)C(=O)N[C@@H](Cc4csc5ccccc45)C(=O)N[C@@H](CCC(N)=O)C(N)=O)(C3)NC(=O)[C@H](CC(N)=O)NC(=O)[C@H](Cc3ccccc3)NC(=O)[C@H](C)NC(=O)[C@H](C)NC(=O)[C@H](CC(=O)O)NC(=O)[C@H](CC(=O)O)NC1=O)NC(=O)[C@H](CC(C)(C)C)NC(=O)[C@H](CC(=O)O)NC2=O (stereo partly drawn) [I-1314, Ac-PL3-Asp-Npg-B5-Asp-Asp-Ala-Ala-Phe-Asn-PyrS2-2cbmF-BztA-Gln-NH2] | > 20 µM | 0.009 µM | 48 µM (≈ 93.8 µg/mL) |  |  |
| COCCOCCC(=O)N1CCC[C@]12CC=CCCCC1(CCCC=CCCCCCC[C@@](C)(C(=O)N[C@@H](Cc3ccccc3Cl)C(=O)N[C@@H](Cc3csc4ccccc34)C(=O)N[C@@H](CCC(N)=O)C(N)=O)NC(=O)[C@H]([C@@H](C)O)NC(=O)[C@H](Cc3ccccc3)NC(=O)[C@H](C)NC(=O)[C@H](C)NC(=O)[C@H](CC(=O)O)NC(=O)[C@H](CC(=O)O)NC1=O)NC(=O)[C@H](CC(C)(C)C)NC(=O)[C@H](CC(=O)O)NC2=O (stereo partly drawn) [I-1255, mPEG2-PL3-Asp-Npg-B5-Asp-Asp-Ala-Ala-Phe-Thr-S8-2C1F-BztA-Gln-NH2] | > 20 µM | 0.032 µM |  |  | 50 µM (≈ 98.9 µg/mL) |
